Results on five compounds are retold here after paper PMC12384454, “Study of the Lipophilicity of Tetracyclic Anticancer Azaphenothiazines” (Biomolecules, 2025).

“Also recorded” adds a separate entry of the source.

The test system of one series is HCT-116 cells.
Test: not given
The note with it: MTT assay; read-out: IC50 HCT116; cited from earlier work. For orientation: Tetrazolium dyes change colour on reduction, which living cells bring about.
The term IC50 denotes the midpoint of a concentration-inhibition curve. For `CS(=O)(=O)NCCCCN1c2cc(Cl)ccc2Sc2cc3ccccc3nc21` [compound 16], the half-inhibitory concentration (IC50) is 0.7 µM.

The series is the same for the next values; noted with them: selectivity index vs HaCaT; cited from earlier work.
On to `CS(=O)(=O)NCCCCN1c2cc(Cl)ccc2Sc2cc3ccccc3nc21` [compound 16], for which the “SI HCT116” value was 143.

The subject of a further series is A549 cells.
Test: not given
The settings on record: MTT assay; cited from earlier work.
On to `CCN(CC)CCN1c2cc(Cl)ccc2Sc2cc3ccccc3nc21` [compound 1], for which the IC50 is 27.2 ± 8.4 µM.
Turning to `Clc1ccc2c(c1)N(CCN1CCCCC1)c1nc3ccccc3cc1S2` [compound 4], the IC50 is 63.8 ± 8.5 µM.
As for `CC(=O)NCCCN1c2cc(Cl)ccc2Sc2cc3ccccc3nc21` [compound 7], the IC50 is 24.6 ± 6.1 µM.
`CCOC(=O)NCCCN1c2cc(Cl)ccc2Sc2cc3ccccc3nc21` [compound 8]: the 50% inhibitory concentration (IC50) was 86.6 ± 0.8 µM.
Consider `CS(=O)(=O)NCCCCN1c2cc(Cl)ccc2Sc2cc3ccccc3nc21` [compound 16], for which the IC50 was 30.5 ± 8.3 µM.

The series is the same for the next values; noted with them: selectivity index vs HaCaT; cited from earlier work.
Consider `CCN(CC)CCN1c2cc(Cl)ccc2Sc2cc3ccccc3nc21` [compound 1], for which the “SI A549” value is 3.7.
For the compound `Clc1ccc2c(c1)N(CCN1CCCCC1)c1nc3ccccc3cc1S2` [compound 4], the “SI A549” value is on record as 1.6.
As for `CC(=O)NCCCN1c2cc(Cl)ccc2Sc2cc3ccccc3nc21` [compound 7], the “SI A549” value is recorded as 4.1.
Regarding `CCOC(=O)NCCCN1c2cc(Cl)ccc2Sc2cc3ccccc3nc21` [compound 8], the “SI A549” value is on record as 1.1.
For the compound `CS(=O)(=O)NCCCCN1c2cc(Cl)ccc2Sc2cc3ccccc3nc21` [compound 16], the “SI A549” value is 3.3.

System in a further series: not listed separately
The experiment in a line: RP-TLC lipophilicity (RM0, log PTLC, C0), silica gel RP-18F254, acetone/TRIS buffer pH 7.4. It counts as physicochemical. The settings on record: RP-TLC, RM extrapolated to 0% acetone, TRIS buffer pH 7.4. The method, then:
In connection with this, in the next stage of the study, the parameters of lipophilicity of the tested compounds were determined experimentally. […] This technique was used to determine the retardation coefficient Rf for each compound in eight mobile phases consisting of acetone and Tris buffer in different volume ratios (50–85% acetone). Next, the Rf values were converted to the chromatographic parameter RM, and then the obtained values were extrapolated to 0% acetone content in the mobile phase obtaining the lipophilicity parameter RM0 (Table S2).
The parameter RM0 can be correlated to an experimental log P lipophilicity parameter of chemical molecules (log PTLC) by applying a calibration curve. The calibration curve was obtained by determining the Rf value for standard substances with a known log Plit value using the RP-TLC method under conditions analogous to those of the tested substances. After calculating the RM and RM0 values, the dependence of the log Plit parameter on the experimentally obtained RM0 values for standards was determined (Table 2).
The chromatographic parameter of lipophilicity was determined by means of Soczewiński–Wachtmeister’s method. […] The acetone ratio was 50 to 85% (v/v) in increments of 5%. The tested compounds in the form of an ethanol solution at a concentration of 2.0 mg/mL each were spotted on chromatographic plates at an amount of 2 µL each. Before analysis, the chromatography chamber (Camag, Switzerland) was saturated with the mobile phase (50 mL) for 30 min. After development at 20 ± 2 °C and subsequent drying, the chromatograms were observed under UV light at 254 nm by using a Camag UV lamp (Muttenz, Switzerland). Each analysis was performed in triplicate. The average value of the retardation factor (Rf) was used to calculate RM using Equation (1):(1) RM=log(1−Rf/Rf)
In addition, the chromatographic parameter of lipophilicity RM0 and b value allowed the determination of the chromatography hydrophobic index C0 by using the following formula:(3) C0=− RM0/b
For `CCN(CC)CCN1c2cc(Cl)ccc2Sc2cc3ccccc3nc21` [compound 1], the RM0 is reported as 3.98.
Same read-out and setting: with `Clc1ccc2c(c1)N(CCN1CCCCC1)c1nc3ccccc3cc1S2` [compound 4] the figure was 4.01; with `CC(=O)NCCCN1c2cc(Cl)ccc2Sc2cc3ccccc3nc21` [compound 7], 2.72.
As to `CCOC(=O)NCCCN1c2cc(Cl)ccc2Sc2cc3ccccc3nc21` [compound 8], the RM0 is 3.76.
Same read-out and setting: for `CS(=O)(=O)NCCCCN1c2cc(Cl)ccc2Sc2cc3ccccc3nc21` [compound 16] the value was 3.65.

The series is the same for the next values; noted with them: chromatography hydrophobic index, C0 = −RM0/b.
Consider `CCN(CC)CCN1c2cc(Cl)ccc2Sc2cc3ccccc3nc21` [compound 1], for which the C0 is on record as 69.58.
Still for that read-out and setting: with `Clc1ccc2c(c1)N(CCN1CCCCC1)c1nc3ccccc3cc1S2` [compound 4] the figure was 73.04.
For the compound `CC(=O)NCCCN1c2cc(Cl)ccc2Sc2cc3ccccc3nc21` [compound 7], the C0 is recorded as 76.19.
Still for that read-out and setting: with `CCOC(=O)NCCCN1c2cc(Cl)ccc2Sc2cc3ccccc3nc21` [compound 8] the figure was 81.74; with `CS(=O)(=O)NCCCCN1c2cc(Cl)ccc2Sc2cc3ccccc3nc21` [compound 16], 76.36.

Still in this series, the particulars now being: from RM0 by calibration curve log PTLC = 1.2862RM0 + 0.2061.
What is called chromatographic logP is a lipophilicity value derived from retention on a column. In the case of `CCN(CC)CCN1c2cc(Cl)ccc2Sc2cc3ccccc3nc21` [compound 1], the chromatographic logP amounted to 5.33.
Still for that read-out and setting: for `Clc1ccc2c(c1)N(CCN1CCCCC1)c1nc3ccccc3cc1S2` [compound 4] the value was 5.36.
The same measure, in the same setting: for `CC(=O)NCCCN1c2cc(Cl)ccc2Sc2cc3ccccc3nc21` [compound 7] the value was 3.7.
`CCOC(=O)NCCCN1c2cc(Cl)ccc2Sc2cc3ccccc3nc21` [compound 8]: the “log PTLC” value was determined as 5.04.
As to `CS(=O)(=O)NCCCCN1c2cc(Cl)ccc2Sc2cc3ccccc3nc21` [compound 16], the chromatographic logP was determined as 4.9.

The next series relates to PC3.
Test: not given
Set-up: method as in earlier work. The settings on record: selectivity index vs HaCaT; cited from earlier work.
For the compound `CS(=O)(=O)NCCCCN1c2cc(Cl)ccc2Sc2cc3ccccc3nc21` [compound 16], the “SI PC3” value is 1.0.

Another series relates to standard strains of staphylococci.
Test: not given
The settings on record: mainly against standard strains of staphylococci; cited from earlier work.
`CCN(CC)CCN1c2cc(Cl)ccc2Sc2cc3ccccc3nc21` [compound 1]: the antibacterial activity entry was “moderate antibacterial activity”.

For a further series, the system named is HaCaT cells.
Test: not given
The settings on record: MTT assay, normal cells; cited from earlier work.
On to `CCN(CC)CCN1c2cc(Cl)ccc2Sc2cc3ccccc3nc21` [compound 1], for which the IC50 was less than 100 µM.
In the case of `Clc1ccc2c(c1)N(CCN1CCCCC1)c1nc3ccccc3cc1S2` [compound 4], the half-inhibitory concentration (IC50) is less than 100 µM.
Take `CC(=O)NCCCN1c2cc(Cl)ccc2Sc2cc3ccccc3nc21` [compound 7]: the IC50 was less than 100 µM.
As for `CCOC(=O)NCCCN1c2cc(Cl)ccc2Sc2cc3ccccc3nc21` [compound 8], the IC50 is less than 100 µM.
With `CS(=O)(=O)NCCCCN1c2cc(Cl)ccc2Sc2cc3ccccc3nc21` [compound 16], the IC50 was less than 100 µM.

Still in this series, the particulars now being: in words; cited from earlier work.
Regarding `CS(=O)(=O)NCCCCN1c2cc(Cl)ccc2Sc2cc3ccccc3nc21` [compound 16], the “cytotoxic effects on HaCaT cells” value was “no cytotoxic effects; also recorded: lack of toxicity to non-cancer cells”.

For the next series, the system named is MDA.
Test: not given
The settings on record: MTT assay; cited from earlier work. The arrangement: method as in earlier work.
Regarding `CCN(CC)CCN1c2cc(Cl)ccc2Sc2cc3ccccc3nc21` [compound 1], the IC50 was less than 100 µM.
On to `Clc1ccc2c(c1)N(CCN1CCCCC1)c1nc3ccccc3cc1S2` [compound 4], for which the IC50 is less than 100 µM.
Take `CC(=O)NCCCN1c2cc(Cl)ccc2Sc2cc3ccccc3nc21` [compound 7]: the half-maximal inhibitory concentration (IC50) was 76.6 ± 8.9 µM.
For the compound `CCOC(=O)NCCCN1c2cc(Cl)ccc2Sc2cc3ccccc3nc21` [compound 8], the IC50 is less than 100 µM.
As to `CS(=O)(=O)NCCCCN1c2cc(Cl)ccc2Sc2cc3ccccc3nc21` [compound 16], the IC50 was less than 100 µM.

Still in this series, the particulars now being: selectivity index vs HaCaT; cited from earlier work.
Turning to `CCN(CC)CCN1c2cc(Cl)ccc2Sc2cc3ccccc3nc21` [compound 1], the “SI MDA” value is given as 1.0.
For `Clc1ccc2c(c1)N(CCN1CCCCC1)c1nc3ccccc3cc1S2` [compound 4], the “SI MDA” value is 1.0.
`CC(=O)NCCCN1c2cc(Cl)ccc2Sc2cc3ccccc3nc21` [compound 7]: the “SI MDA” value was 1.3.
On to `CCOC(=O)NCCCN1c2cc(Cl)ccc2Sc2cc3ccccc3nc21` [compound 8], for which the “SI MDA” value is given as 1.0.
Take `CS(=O)(=O)NCCCCN1c2cc(Cl)ccc2Sc2cc3ccccc3nc21` [compound 16]: the “SI MDA” value is on record as 0.2.

For the next series, the system named is MiaPaCa-2.
Test: not given
The arrangement: method as in earlier work. The note with it: MTT assay; cited from earlier work.
`CS(=O)(=O)NCCCCN1c2cc(Cl)ccc2Sc2cc3ccccc3nc21` [compound 16]: the IC50 is 98.4 ± 5.6 µM.

The same series, now with this note: selectivity index vs HaCaT; cited from earlier work.
For `CS(=O)(=O)NCCCCN1c2cc(Cl)ccc2Sc2cc3ccccc3nc21` [compound 16], the “SI MiaPaCa-2” value is on record as 1.0.
